Data published in patent US12227495B2, “Herbicidal compounds” (SYNGENTA CROP PROTECTION AG, priority 2018, dated 2025).

Key:
Assay type in all cases: in vivo
Conditions in all cases: evaluated after 13 days
[1] = test system: Amaranthus retoflexus (AMARE); experiment: Post-emergence herbicide test, glasshouse, percentage damage
Method in brief: (§1)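 Seeds sown in pots; cultured 1 day (pre-emergence) or 8 days (post-emergence) in a controlled glasshouse; then sprayed with the active in acetone/water 50:50 plus 0.5% Tween 20 at 500 g/ha unless noted; grown on 13 days; damage assessed and banded into five classes.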

[2] = test system: Echinochloa crus-galli (ECHCG); experiment: as above
Method in brief: as §1

[3] = test system: Ipomoea hederacea (IPOHE); experiment: as above
Method in brief: as §1

Lolium perenne (LOLPE) [4] = experiment: as above
Method in brief: as §1

Setaria faberi (SETFA) [5] = experiment: as above
Method in brief: as §1

Solanum nigrum (SOLNI) [6] = experiment: as above
Method in brief: as §1

[7] = test system: Amaranthus retoflexus (AMARE); experiment: Pre-emergence herbicide test, glasshouse, percentage damage
Method in brief: as §1

[8] = test system: Echinochloa crus-galli (ECHCG); experiment: as above
Method in brief: as §1

[9] = test system: Ipomoea hederacea (IPOHE); experiment: as above
Method in brief: as §1

Lolium perenne (LOLPE) [10] = experiment: as above
Method in brief: as §1

Setaria faberi (SETFA) [11] = experiment: as above
Method in brief: as §1

Solanum nigrum (SOLNI) [12] = experiment: as above
Method in brief: as §1

| SMILES | percentage damage caused to the plant, AMARE ([1]; 1000 g/ha) | percentage damage caused to the plant, ECHCG ([2]; 1000 g/ha) | percentage damage caused to the plant, IPOHE ([3]; 1000 g/ha) | percentage damage caused to the plant, LOLPE (Lolium perenne (LOLPE) [4]; 1000 g/ha) | percentage damage caused to the plant, SETFA (Setaria faberi (SETFA) [5]; 1000 g/ha) | percentage damage caused to the plant, SOLNI (Solanum nigrum (SOLNI) [6]; 1000 g/ha) | Pre-emergence Test AMARE percentage damage (five point scale) ([7]; rate 1000 g/ha) | Pre-emergence Test ECHCG percentage damage (five point scale) ([8]; rate 1000 g/ha) | Pre-emergence Test IPOHE percentage damage (five point scale) ([9]; rate 1000 g/ha) | Pre-emergence Test LOLPE percentage damage (five point scale) (Lolium perenne (LOLPE) [10]; rate 1000 g/ha) | Pre-emergence Test SETFA percentage damage (five point scale) (Setaria faberi (SETFA) [11]; rate 1000 g/ha) | Pre-emergence Test SOLNI percentage damage (five point scale) (Solanum nigrum (SOLNI) [12]; rate 1000 g/ha) | further results |
| --- | --- | --- | --- | --- | --- | --- | --- | --- | --- | --- | --- | --- | --- |
| Fc1cccc(Oc2ccc(Br)cn2)c1-c1cc(C(F)F)no1 [Compound A41] | 5 (5=81-100%) | 5 (5=81-100%) | 5 (5=81-100%) | 5 (5=81-100%) | 5 (5=81-100%) | 5 (5=81-100%) | 5 (5=81-100%) | 5 (5=81-100%) | 3 (3=41-60%) | 5 (5=81-100%) | 5 (5=81-100%) | 5 (5=81-100%) |  |
| Fc1cc(Cl)cnc1Oc1cccc(Cl)c1-c1cc(C(F)F)no1 [Compound A42] |  |  |  |  |  |  |  |  |  |  |  |  | percentage damage caused to the plant, AMARE ([1]; 250 g/ha): 5 (5=81-100%); percentage damage caused to the plant, ECHCG ([2]; 250 g/ha): 4 (4=61-80%); percentage damage caused to the plant, IPOHE ([3]; 250 g/ha): 4 (4=61-80%); percentage damage caused to the plant, LOLPE (Lolium perenne (LOLPE) [4]; 250 g/ha): 5 (5=81-100%); percentage damage caused to the plant, SETFA (Setaria faberi (SETFA) [5]; 250 g/ha): 5 (5=81-100%); percentage damage caused to the plant, SOLNI (Solanum nigrum (SOLNI) [6]; 250 g/ha): 5 (5=81-100%); Pre-emergence Test AMARE percentage damage (five point scale) ([7]; rate 250 g/ha): 5 (5=81-100%); Pre-emergence Test ECHCG percentage damage (five point scale) ([8]; rate 250 g/ha): 5 (5=81-100%); Pre-emergence Test IPOHE percentage damage (five point scale) ([9]; rate 250 g/ha): 3 (3=41-60%); Pre-emergence Test LOLPE percentage damage (five point scale) (Lolium perenne (LOLPE) [10]; rate 250 g/ha): 5 (5=81-100%); Pre-emergence Test SETFA percentage damage (five point scale) (Setaria faberi (SETFA) [11]; rate 250 g/ha): 5 (5=81-100%); Pre-emergence Test SOLNI percentage damage (five point scale) (Solanum nigrum (SOLNI) [12]; rate 250 g/ha): 4 (4=61-80%) |
| Fc1cc(Cl)cnc1Oc1ccccc1-c1cc(C(F)F)no1 [Compound A43] | 5 (5=81-100%) | 4 (4=61-80%) | 4 (4=61-80%) | 5 (5=81-100%) | 5 (5=81-100%) | 5 (5=81-100%) | 5 (5=81-100%) | 5 (5=81-100%) | 4 (4=61-80%) | 5 (5=81-100%) | 5 (5=81-100%) | 5 (5=81-100%) |  |
| Fc1cc(Cl)cnc1Oc1cccc(Br)c1-c1cc(C(F)F)no1 [Compound A44] | 5 (5=81-100%) | 5 (5=81-100%) | 5 (5=81-100%) | 5 (5=81-100%) | 5 (5=81-100%) | 5 (5=81-100%) | 5 (5=81-100%) | 5 (5=81-100%) | 5 (5=81-100%) | 5 (5=81-100%) | 5 (5=81-100%) | 5 (5=81-100%) |  |
| O=[N+]([O-])c1cccc(Oc2ncc(Cl)cc2F)c1-n1cc(C(F)(F)F)cn1 [Compound A46] | 5 (5=81-100%) | 3 (3=41-60%) | 2 (2=21-40%) | 3 (3=41-60%) | 4 (4=61-80%) | 5 (5=81-100%) | 4 (4=61-80%) | 4 (4=61-80%) | 1 (1=0-20%) | 1 (1=0-20%) | 5 (5=81-100%) | 1 (1=0-20%) |  |
